In patent US20080306073A1, “Antitumor Effect Potentiator, Antitumor Preparation, and Method for Treating Cancer” (priority 2005, published 2008):
Read-outs that look alike come from different tables or passages of the source. Marks after values point to notes of the source that are not given here.

Tests used:
[1] = system: human colon cancer xenograft HCT-15 strain; assay: Action toward a multidrug-resistant strain (Pharmacological Test Example 3); type: in vivo, male nude mice BALB/c-nu/nu
Description: A fragment measuring about 2 mm cubic fragment of the human colon cancer xenograft HCT-15 strain, which expresses P-glycoprotein in large amounts and is resistant to multiple drugs, was subcutaneously implanted on the backs of male nude mice BALB/c-nu/nu. When the average tumor volume (=0.5×major axis (mm)×minor axis (mm)^2) reached about 200 mm^3, the mice were divided into groups (day 0). A TS-1 preparation as prepared in Pharmacological Test Example 1 was orally administered to the mice once a day in an amount as shown in Table 3 from day 1 for 14 consecutive days. The l-OHP preparation was administered only once into the tail vein on day 1 at 10.0 mg/kg immediately before the administration of the TS-1 preparation. The extent of tumor growth inhibition was calculated as in Pharmacological Test Example 1. Using the relative tumor volumes on day 15, the difference in relative tumor volume between the control group and the drug-administered groups was determined according to a Dunnett's test, and the difference between the one which was given either TS-1 or l-OHP and the one which was given TS-1 and l-OHP in combination was evaluated according to Student's t-test.

[2] = system: human colon cancer xenograft COL-1 strain; details: TS-1 where given 6.9 mg/kg as tegafur po 14 days; for Relative tumor volume (Mean): day 15/day 0; for Extent of tumor growth inhibition (%): day 15; for Extent of body weight change (%): day 15 vs day 0
Protocol: A fragment measuring about 2 mm cubic fragment of the human colon cancer xenograft COL-1 strain was subcutaneously implanted on the backs of male nude mice BALB/c-nu/nu. When the average tumor volume (=0.5×major axis (mm)×minor axis (mm)^2) reached about 125 mm^3, the mice were divided into groups (day 0).
For the determination of antitumor effect, the ratio of the tumor volume upon grouping (day 0) to the tumor volume on day 15 was calculated to obtain a relative tumor volume. The extent of tumor growth inhibition was determined using the average relative tumor volumes of the drug-administered groups and the control group.
The extent of body weight change between the mice on day 0 and the mice on day 15 was used as an index of systemic toxicity of l-OHP.

[3] = system: human colon cancer xenograft COL-1 strain; details: l-OHP into the tail vein on days 1 and 8
Protocol: A fragment measuring about 2 mm cubic fragment of the human colon cancer xenograft COL-1 strain was subcutaneously implanted on the backs of male nude mice BALB/c-nu/nu. When the average tumor volume (=0.5×major axis (mm)×minor axis (mm)^2) reached about 170 mm^3, the mice were divided into groups (day 0).
For the determination of antitumor effect, the ratio of the tumor volume upon grouping (day 0) to the tumor volume on day 15 was calculated to obtain a relative tumor volume. The extent of tumor growth inhibition was determined using the average relative tumor volumes of the drug-administered groups and the control group. Using the relative tumor volumes on the test day, the statistical significance of the difference in relative tumor volume between the control group and the one which was given the pharmaceutical agents was analyzed according to a Dunnett's test; and the statistical significance of the difference in relative tumor volume between the one which was given TS-1 and l-OHP in combination and the one which was given capecitabine and l-OHP in combination was analyzed according to Student's t-test. The extent of body weight change between the mice on day 0 and the mice on day 15 was used as an index of systemic toxicity of the pharmaceutical preparations.

[4] = system: 5-FU-resistant strain of the human colon cancer xenograft KM12C strain; assay: Action toward a 5-FU-resistant strain (Pharmacological Test Example 2); details: TS-1 8.3 mg/kg/day as tegafur po 9 days, l-OHP 8.3 mg/kg iv day 1
Protocol: A fragment measuring about 2 mm cubic fragment of a 5-FU-resistant strain of the human colon cancer xenograft KM12C strain established by the applicant was subcutaneously implanted on the backs of male nude mice BALB/c-nu/nu. When the average tumor volume (=0.5×major axis (mm)×minor axis (mm)^2) reached about 200 mm^3, the mice were divided into groups (day 0). […] The ratio of the tumor volume on day 0 to the tumor volume on day 10 was calculated to obtain a relative tumor volume.

[5] = system: human colon cancer xenograft KM20C strain; assay: Antitumor effect on human colon cancer xenograft KM20C in nude rats (Pharmacological Test Example 1); details: TS-1 12 or UFT 24 mg/kg/day as tegafur (+ LV 20) po 14 days, l-OHP 10 mg/kg iv day 1
Description: A tegafur/gimeracil/oteracil potassium compound pharmaceutical agent (tegafur/gimeracil/oteracil potassium molar ratio=1:0.4:1, hereinafter sometimes referred to as TS-1), a tegafur/uracil compound pharmaceutical agent (tegafur/uracil molar ratio=1:4, hereinafter sometimes referred to as UFT), and d,l-calcium folinate were independently dissolved or suspended in 0.5% hydroxypropylmethyl cellulose (HPMC) solutions, and pharmaceutical preparations were formulated so as to allow administration thereof in a final dosage of 10 mL/kg.
l-OHP was dissolved in 5% aqueous glucose solution (Otsuka Glucose, manufactured by Otsuka Pharmaceutical Factory Inc.), thereby giving an l-OHP preparation.
A fragment measuring about 2 mm cubic fragment of the human colon cancer xenograft KM20C strain was subcutaneously implanted on the backs of male nude rats F344/NJcl-rnu. When the average tumor volume (=0.5×major axis (mm)×minor axis (mm)^2) reached about 200 mm^3, the rats were divided into groups (day 0).
The TS-1 preparation or the UFT+LV preparation prepared above was orally administered once a day in amounts presented in Table 1 from the day after grouping (day 1) for 14 consecutive days. The l-OHP preparation was administered into the tail vein on day 1 at 10 mg/kg immediately before the administration of the aforementioned preparations.
The ratio of the tumor volume upon grouping (day 0) to the tumor volume on day 15 was regarded as the relative tumor volume: Tumor volume on day 15/Tumor volume on day 0
The extent of tumor growth inhibition (%) was calculated using the average relative tumor volume of the drug-administered groups and the average relative tumor volume of the control group:
[1−(Relative tumor volume of drug-administered group)/(Relative tumor volume of tumor-bearing control group)]×100 (%)
The difference in body weight between rats on day 0 and rats on day 15 presented as a ratio (extent of body weight change) was used as an index of systemic toxicity of the pharmaceutical preparation: […]

[6] = system: human colon cancer xenograft COL-1 strain; assay: Preliminary test: maximum tolerable dose of capecitabine (Pharmacological Test Example 5); type: in vivo, male nude mice BALB/c-nu/nu; details: capecitabine po once a day 14 days at 240, 360 or 540 mg/kg with l-OHP 4.2 mg/kg/day iv days 1 and 8
Protocol: A fragment measuring about 2 mm cubic fragment of the human colon cancer xenograft COL-1 strain was subcutaneously implanted on the backs of male nude mice BALB/c-nu/nu. When the average tumor volume (=0.5×major axis (mm)×minor axis (mm)^2) reached about 190 mm^3, the mice were divided into groups (day 0). Capecitabine suspended in 0.5% HPMC solution was orally administered to the mice once a day at 240, 360, or 540 mg/kg from the day after grouping for 14 consecutive days. l-OHP dissolved in 5% aqueous glucose solution was administered into the tail vein on days 1 and 8 at 4.2 mg/kg/day immediately before the administration of the Capecitabine. The difference in body weight between the mice on day 0 and the mice on day 15 presented as a ratio and the occurrence of death were used as indices of systemic toxicity of capecitabine.

5-FU decomposition = details: compared with uracil; cited from earlier work
[7] = l-OHP 2.9 mg/kg iv days 1 and 8
[8] = l-OHP 3.5 mg/kg iv days 1 and 8
[9] = l-OHP 4.2 mg/kg iv days 1 and 8
[10] = l-OHP 5.0 mg/kg iv days 1 and 8

Q: What does the source list for `O=C([O-])C(=O)[O-].[NH-][C@@H]1CCCC[C@H]1[NH-].[Pt+4]` (relative stereo) [l-OHP, cis-oxalate(1R,2R-diaminocyclohexane)platinum(II)]?
A: Relative tumor volume (Mean) ([1]; day 15/day 0, TS-1 10 mg/kg/day as tegafur po 14 days, l-OHP 10 mg/kg iv once day 1): 4.33; Extent of tumor growth inhibition (%) ([1]; day 15, TS-1 10 mg/kg/day as tegafur po 14 days, l-OHP 10 mg/kg iv once day 1): 4.3%; antitumor effect on the multidrug-resistant tumor (in words) ([1]; l-OHP alone, 10 mg/kg iv once day 1): barely shows any antitumor effect; Relative tumor volume (Mean) [2, 7]: 5.06 ^§; Relative tumor volume (Mean) [2, 8]: 4.54 ^§, *; Relative tumor volume (Mean) [2, 9]: 4.43 ^§, **; Relative tumor volume (Mean) [2, 10]: 4.41 ^§, **; Extent of tumor growth inhibition (%) [2, 7]: 11.9%; Extent of tumor growth inhibition (%) [2, 8]: 21.0%; Extent of tumor growth inhibition (%) [2, 9]: 23.0%; Extent of tumor growth inhibition (%) [2, 10]: 23.3%; Extent of body weight change (%) [2, 7]: −18.0%; Extent of body weight change (%) [2, 8]: −20.6%; Extent of body weight change (%) [2, 9]: −19.0%; Extent of body weight change (%) [2, 10]: −16.8%; Number of dead animal [2, 7]: 0; Number of dead animal [2, 8]: 0; Number of dead animal [2, 9]: 0; Number of dead animal [2, 10]: 0; maximum tolerable dose [3]: 4.2 mg/kg/day; Relative tumor volume (Mean) ([4]; day 10/day 0): 7.97; Extent of tumor growth inhibition (%) ([4]; day 10): 16.1%; Extent of body weight change (%) ([4]; day 10 vs day 0): −8.0%; Relative tumor volume (Mean) ([5]; day 15/day 0): 4.64; Extent of tumor growth inhibition (%) ([5]; day 15): 20.1%; Extent of body weight change (%) ([5]; day 15 vs day 0): 0.9%

Q: Which “maximum tolerable dose at which death due to toxicity is not observed” value [6] does the source give for `CCCCCOC(=O)Nc1nc(=O)n([C@@H]2O[C@H](C)[C@@H](O)[C@H]2O)cc1F` [capecitabine] here?
A: Its value is 360 mg/kg/day.

Q: With `Oc1cc(O)c(Cl)cn1` [gimeracil, 2,4-dihydroxy-5-chloropyridine] as the compound, how does the “5-FU decomposition inhibitory action relative to that of uracil” value (5-FU decomposition) read?
A: The value was “about 200 times”.
